Test results as given in patent US12702660B2, “Method for treating cancer with an oral dosage form of an estrogen receptor-alpha inhibitor” (Eisai R&D Management Co., Ltd., priority 2019, dated 2026).
Like-named read-outs stand apart in the source and are kept apart here.

Assay: Plasma PK of H3B-6545 capsules in fasted patients, phase 1 dose escalation
Type: in vivo, human
Details: for Tlag: Median (Min, Max)
Experimental: Blood samples were collected at the planned time points from each patient and centrifuged. The plasma portion of each sample was then transferred to a K2EDTA tube, which was then shipped to a bioanalytical lab for concentration measurement using LC-MS/MS. The concentration data were then analyzed using Phoenix® WinNonlin software to obtain PK parameters. The obtained PK parameters were further summarized using analytical software.
Blood samples (approximately 5 mL each) were collected from human patients pre-dose and at various hourly time points post-dose. Plasma concentrations of H3B-6545 were determined using a validated high-performance liquid chromatography/tandem mass spectrometry (LC-MS/MS) method. The lower limit of quantification was 0.100 ng/mL.
The PK Analysis Set included subjects who received H3B-6545 drug product in capsules or tablets and had sufficient evaluable plasma concentration data to derive at least 1 primary PK parameter in each treatment. Plasma concentrations of H3B-6545 (as free base) were tabulated and summarized at each nominal time using descriptive statistics (number of subjects, arithmetic mean with standard deviation [SD], coefficient of variation [CV %], geometric mean, median, minimum, and maximum) as appropriate. Individual and mean (±SD) plasma concentration-time profiles were provided for each treatment.
Pharmacokinetic parameters of H3B-6545 were calculated using noncompartmental methods, using an appropriate model for plasma data and extravascular administration. The PK parameters included, but were not limited to, area under the curve to the time of the last quantifiable concentration (AUC0-t), maximum concentration (Cmax), and time at which the maximum concentration occurred (tmax). If data permitted, the area under the plasma concentration-time curve extrapolated to infinity (AUC0-inf), terminal elimination half-life (t1/2), apparent total body clearance (CL/F), total systemic clearance after oral administration at steady state (CLss/F), apparent volume of distribution during the terminal phase (Vz/F), apparent steady-state volume of distribution (Vss), accumulation ratio for Cmax (RCmax) and accumulation ratio of AUC0-24 (RAUC) were also derived.
Methods were used to analyze whether H3B-6545 inactivates both wild-type and mutant ERα by targeting cysteine 530 and enforcing a unique antagonist conformation. Methods: Women with locally advanced or metastatic HR+BC are treated (tx) with H3B-6545 drug product administered once daily orally by capsule over a 28 day cycle after progression on at least one hormonal therapy and at least one additional therapy/regimen. Dose escalation uses a 3+3 design with the option to backfill previously cleared doses and allows for intrapatient dose escalation. This example explored the safety, pharmacokinetics and pharmacodynamics of H3B-6545 in women with HR+BC to identify a recommended subsequent dose for testing.
• H3B-6545 administered once daily orally over a 28 day cycle. • Dose escalation using a standard 3+3 study design using dose cohorts of 100, 200, 300, 450, and 600 mg QD. • Patients allowed to backfill previously cleared doses. • Intra-patient dose escalation allowed after completion of Cycle 3. Results (as of Apr. 20, 2019) Patient Population: • 46 patients were treated with H3B-6545 at doses of 100 to 600 mg QD. • 42 (91.3%) patients received a prior CDK4/6 inhibitor and 32 (69.6%) prior fulvestrant. • 30 (65.2%) patients received ≥3 prior anti-cancer therapy lines in the advanced/metastatic setting.
The clinical trial of Example 3 was continued and PK evaluations (of this Example 4) were made at a later date on the basis of a larger patient population. The summary of Tables 1 in Analysis of Pharmacokinetic (PK) of Capsules in Fasted Patients and 2 show PK parameters and profiles of human patients receiving capsules of H3B-6545 drug product prepared as in Example 1. […]

[1] = Cycle 1 Day 15, 100 mg QD capsules, fasted patients, Geometric Mean (GeoCV %)
[2] = Cycle 1 Day 15, 100 mg QD capsules, fasted patients, normalized from Table 11
[3] = Cycle 1 Day 15, 200 mg QD capsules, fasted patients, Geometric Mean (GeoCV %)
[4] = Cycle 1 Day 15, 200 mg QD capsules, fasted patients, normalized from Table 11
[5] = Cycle 1 Day 15, 300 mg QD capsules, fasted patients, Geometric Mean (GeoCV %)
[6] = Cycle 1 Day 15, 300 mg QD capsules, fasted patients, normalized from Table 11
[7] = Cycle 1 Day 15, 450 mg QD capsules, fasted patients, Geometric Mean (GeoCV %)
[8] = Cycle 1 Day 15, 450 mg QD capsules, fasted patients, normalized from Table 11
[9] = Cycle 1 Day 15, 600 mg QD capsules, fasted patients, Geometric Mean (GeoCV %)
[10] = Cycle 1 Day 15, 600 mg QD capsules, fasted patients, normalized from Table 11
[11] = Cycle 1 Day-Dose Escalation, 100 mg QD capsules, fasted patients, normalized from Table 9
[12] = Cycle 1 Day-Dose Escalation, 200 mg QD capsules, fasted patients, normalized from Table 9
[13] = Cycle 1 Day-Dose Escalation, 300 mg QD capsules, fasted patients, normalized from Table 9
[14] = Cycle 1 Day-Dose Escalation, 450 mg QD capsules, fasted patients, normalized from Table 9
[15] = Cycle 1 Day-Dose Escalation, 600 mg QD capsules, fasted patients, normalized from Table 9
[16] = female, human, plasma, oral, 100 mg, Cycle 1 Day 1, 100 mg QD capsules, fasted patients, Geometric Mean (GeoCV %)

CN(C)C(=O)/C=C/CNCCOc1ccc(/C(=C(/CC(F)(F)F)c2ccccc2)c2ccc3[nH]nc(F)c3c2)cn1 [H3B-6545, (E)-N,N-dimethyl-4-[2-[5-[(Z)-4,4,4-trifluoro-1-(3-fluoro-1H-indazol-5-yl)-2-phenylbut-1-enyl]pyridin-2-yl]oxyethylamino]but-2-enamide]
plasma exposure versus dose (100 mg to 600 mg, Cycle 1, Day 1, preliminary PK analyses (FIG. 1)): roughly dose-proportional increase
tmax and half-life, dependence on dose and time (100 mg to 600 mg, preliminary PK analyses (FIG. 1)): independent of dose and time
plasma concentration versus dose (100 to 600 mg, as of Apr. 20, 2019 (FIG. 1)): increased with dose
CL/F (Cycle 1 Day 1, 100 mg QD capsules, fasted patients, Geometric Mean (GeoCV %)): 46.9 (92.2); 6 L/h
Tlag (Cycle 1 Day 1, 100 mg QD capsules, fasted patients): 0 (0-1); 6 h
CL/F (Cycle 1 Day 1, 200 mg QD capsules, fasted patients, Geometric Mean (GeoCV %)): 37.9 (68.3); 8 L/h
Tlag (Cycle 1 Day 1, 200 mg QD capsules, fasted patients): 0 (0-0.6); 12 h
CL/F (Cycle 1 Day 1, 300 mg QD capsules, fasted patients, Geometric Mean (GeoCV %)): 27.1 (49.1); 10 L/h
Tlag (Cycle 1 Day 1, 300 mg QD capsules, fasted patients): 0 (0-0.58); 11 h
CL/F (Cycle 1 Day 1, 450 mg QD capsules, fasted patients, Geometric Mean (GeoCV %)): 19.6 (42.4); 8 L/h
Tlag (Cycle 1 Day 1, 450 mg QD capsules, fasted patients): 0 (0-0.5); 11 h
CL/F (Cycle 1 Day 1, 600 mg QD capsules, fasted patients, Geometric Mean (GeoCV %)): 18.3 (68.6); 5 L/h
Tlag (Cycle 1 Day 1, 600 mg QD capsules, fasted patients): 0 (0-0.5); 7 h
CLss/F [1]: 39.1 (56.2); 6 L/h
RAUC (accumulation ratio of AUC0-24) [1]: 1.52 (58.3); 6
RCmax (accumulation ratio for Cmax) [1]: 1.61 (69.3); 6
Tlag (Cycle 1 Day 15, 100 mg QD capsules, fasted patients): 0 (0-0); 6 h
AUC0-24 (per 1 mg of API) [2]: 25.6 ng·h/mL/mg
AUC0-inf (per 1 mg of API) [2]: 29.5 ng·h/mL/mg
AUC0-t (per 1 mg of API) [2]: 25.9 ng·h/mL/mg
Cmax (per 1 mg of API) [2]: 2.9 ng/mL/mg
CLss/F [3]: 29.1 (52.8); 10 L/h
RAUC (accumulation ratio of AUC0-24) [3]: 1.43 (72.9); 10
RCmax (accumulation ratio for Cmax) [3]: 1.28 (118.2); 10
Tlag (Cycle 1 Day 15, 200 mg QD capsules, fasted patients): 0 (0-0); 10 h
AUC0-24 (per 1 mg of API) [4]: 34.4 ng·h/mL/mg
AUC0-inf (per 1 mg of API) [4]: 39.8 ng·h/mL/mg
AUC0-t (per 1 mg of API) [4]: 34.6 ng·h/mL/mg
Cmax (per 1 mg of API) [4]: 3.0 ng/mL/mg
CLss/F [5]: 26.2 (50.5); 10 L/h
RAUC (accumulation ratio of AUC0-24) [5]: 1.27 (38.3); 11
RCmax (accumulation ratio for Cmax) [5]: 1.34 (38.3); 11
Tlag (Cycle 1 Day 15, 300 mg QD capsules, fasted patients): 0 (0-0); 11 h
AUC0-24 (per 1 mg of API) [6]: 40.0 ng·h/mL/mg
AUC0-inf (per 1 mg of API) [6]: 42.5 ng·h/mL/mg
AUC0-t (per 1 mg of API) [6]: 40.3 ng·h/mL/mg
Cmax (per 1 mg of API) [6]: 4.0 ng/mL/mg
CLss/F [7]: 32.1 (52.6); 10 L/h
RAUC (accumulation ratio of AUC0-24) [7]: 0.920 (49); 10
RCmax (accumulation ratio for Cmax) [7]: 1.05 (42.1); 10
Tlag (Cycle 1 Day 15, 450 mg QD capsules, fasted patients): 0 (0-0); 10 h
AUC0-24 (per 1 mg of API) [8]: 31.2 ng·h/mL/mg
AUC0-inf (per 1 mg of API) [8]: 38.6 ng·h/mL/mg
AUC0-t (per 1 mg of API) [8]: 31.2 ng·h/mL/mg
Cmax (per 1 mg of API) [8]: 3.1 ng/mL/mg
CLss/F [9]: 32.7 (78.1); 3 L/h
RAUC (accumulation ratio of AUC0-24) [9]: 0.712 (31.4); 3
RCmax (accumulation ratio for Cmax) [9]: 0.685 (69.2); 3
Tlag (Cycle 1 Day 15, 600 mg QD capsules, fasted patients): 0 (0-0); 3 h
AUC0-24 (per 1 mg of API) [10]: 30.6 ng·h/mL/mg
AUC0-inf (per 1 mg of API) [10]: 66.2 ng·h/mL/mg
AUC0-t (per 1 mg of API) [10]: 31.2 ng·h/mL/mg
Cmax (per 1 mg of API) [10]: 2.8 ng/mL/mg
AUC0-24 (per 1 mg of API) [11]: 16.8 ng·h/mL/mg
AUC0-inf (per 1 mg of API) [11]: 21.3 ng·h/mL/mg
AUC0-t (per 1 mg of API) [11]: 16.8 ng·h/mL/mg
Cmax (per 1 mg of API) [11]: 1.78 ng/mL/mg
AUC0-24 (per 1 mg of API) [12]: 23.8 ng·h/mL/mg
AUC0-inf (per 1 mg of API) [12]: 26.37 ng·h/mL/mg
AUC0-t (per 1 mg of API) [12]: 24.1 ng·h/mL/mg
Cmax (per 1 mg of API) [12]: 2.4 ng/mL/mg
AUC0-24 (per 1 mg of API) [13]: 31.6 ng·h/mL/mg
AUC0-inf (per 1 mg of API) [13]: 36.9 ng·h/mL/mg
AUC0-t (per 1 mg of API) [13]: 31.8 ng·h/mL/mg
Cmax (per 1 mg of API) [13]: 3.0 ng/mL/mg
AUC0-24 (per 1 mg of API) [14]: 35.9 ng·h/mL/mg
AUC0-inf (per 1 mg of API) [14]: 51.1 ng·h/mL/mg
AUC0-t (per 1 mg of API) [14]: 35.9 ng·h/mL/mg
Cmax (per 1 mg of API) [14]: 3.3 ng/mL/mg
AUC0-24 (per 1 mg of API) [15]: 37.3 ng·h/mL/mg
AUC0-inf (per 1 mg of API) [15]: 54.8 ng·h/mL/mg
AUC0-t (per 1 mg of API) [15]: 37.2 ng·h/mL/mg
Cmax (per 1 mg of API) [15]: 3.4 ng/mL/mg
AUC(0-inf) [16]: 2130 ng·h/mL
Cmax [16]: 178 ng/mL
half-life [16]: 10.2 h
AUC(0-t) (female, human, plasma, oral, 100 mg, Cycle 1 Day 1, 100 mg QD capsules, fasted patients, Geometric Mean (GeoCV %), read-out: AUC0-24): 1680 ng·h/mL
AUC(0-t) (female, human, plasma, oral, 100 mg, Cycle 1 Day 1, 100 mg QD capsules, fasted patients, Geometric Mean (GeoCV %), read-out: AUC0-t): 1680 ng·h/mL
